# According to paper PMC10303036 (Journal of medicinal chemistry, 2022):
# Entries after “also recorded” stand apart in the source; their conditions may differ. Where two headings read alike, the source gives them in different places.
# How the values were obtained:
# [1] = literature antibacterial activity, strain not stated; cited from earlier work
# E. coli ACC = E. coli ACC (Escherichia coli, UniProt P0A9Q5+P0ABD5+P24182); test: ACC activity fluorescence polarization assay; format: biochemical; details: for IC50: IC50, fluorescence polarization assay, triplicate, ± SD; for Ki: Ki (apparent, Morrison equation), tight binding inhibitors (IC50 < 0.5 nM), fluorescence polarization assay
# E. coli ACC, sequence (P0ABD5 whole entry): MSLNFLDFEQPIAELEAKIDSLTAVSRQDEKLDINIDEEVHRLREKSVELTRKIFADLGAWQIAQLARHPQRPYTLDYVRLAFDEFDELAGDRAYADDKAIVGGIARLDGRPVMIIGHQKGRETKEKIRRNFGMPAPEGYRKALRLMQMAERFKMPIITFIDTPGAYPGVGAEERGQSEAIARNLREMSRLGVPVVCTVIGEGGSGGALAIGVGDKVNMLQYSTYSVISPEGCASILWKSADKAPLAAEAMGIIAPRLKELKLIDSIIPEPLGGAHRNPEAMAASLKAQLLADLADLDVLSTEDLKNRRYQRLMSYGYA
# E. coli ACC, sequence (P0A9Q5 whole entry): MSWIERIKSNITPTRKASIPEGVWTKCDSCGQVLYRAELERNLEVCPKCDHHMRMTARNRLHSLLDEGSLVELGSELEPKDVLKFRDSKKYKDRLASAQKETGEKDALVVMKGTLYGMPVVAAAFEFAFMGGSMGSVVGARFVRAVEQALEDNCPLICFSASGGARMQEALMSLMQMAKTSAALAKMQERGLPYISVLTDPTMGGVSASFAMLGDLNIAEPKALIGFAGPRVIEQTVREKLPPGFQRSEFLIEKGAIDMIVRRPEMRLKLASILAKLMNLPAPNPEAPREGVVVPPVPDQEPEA
# E. coli ΔtolC = format: cell-based
# ACC complex = ACC complex (Escherichia coli, UniProt P0A9Q5+P0ABD5+P24182); test: Spin-column LC-MS/MS competition assay; format: binding, E. coli; details: for dissociation from ACC with 1 and 3 together: 50 μM of 1 and 3 together added to ACC-inhibitor complex; for dissociation from ACC with 1 alone: 100 μM of 1 alone added to ACC-inhibitor complex
# ACC complex, sequence (P0A9Q5 whole entry): as above
# ACC complex, sequence (P0ABD5 whole entry): as the sequence (P0ABD5 whole entry) above
smiles,measurement,setting,value
Nc1ncc(C(=O)N(Cc2ccccc2)Cc2ccccc2)o1 [Compound 2],MIC,[1],> 64 mg/L
"C/C=C/C=C/C(=O)N[C@@H](CC(=O)N[C@H](C(=O)[C@@H]1C(=O)NC(=O)[C@H]1C)C(C)C)c1ccccc1 [Compound 3, moiramide B, reference compound]",IC50,E. coli ACC,5 nM
"C#CCCCCOCCOCCOCCOCCOCCOCCOc1cc(Br)c(-c2cc3cnc(N)nc3nc2N)c(Br)c1 [Compound 9c-p, 6-(2,6-dibromo-4-(3,6,9,12,15,18-hexaoxatetracos-23-yn-1-yloxy)phenyl)pyrido[2,3-d]pyrimidine-2,7-diamine]",IC50,E. coli ACC,> 500 nM
"C#CCCCCOCCOCCOCCOCCOCCOCCOCCOCCOCCOCCOCCOCCOc1ccc(Br)c(-c2cc3cnc(N)nc3nc2N)c1Br [Compound 9e, 6-(2,6-dibromo-3-(3,6,9,12,15,18,21,24,27,30,33,36-dodecaoxadotetracont-41-yn-1-yloxy)phenyl)pyrido[2,3-d]pyrimidine-2,7-diamine]",MIC ΔtolC + PMBN,E. coli ΔtolC; PMBN 6 μM (8 μg/mL),12.5 µM
"CC(C)[C@H](NC(=O)C[C@H](NC(=O)CCCCCCCCCCn1cc(CCCCOc2ccc(Br)c(-c3cc4cnc(N)nc4nc3N)c2Br)nn1)c1ccccc1)C(=O)[C@@H]1C(=O)NC(=O)[C@H]1C [Compound 15, 11-(4-(4-(2,4-dibromo-3-(2,7-diaminopyrido[2,3-d]pyrimidin-6-yl)phenoxy)butyl)-1H-1,2,3-triazol-1-yl)-N-((1S)-3-(((2S)-3-methyl-1-((3R,4S)-4-methyl-2,5-dioxopyrrolidin-3-yl)-1-oxobutan-2-yl)amino)-3-oxo-1-phenylpropyl)undecanamide]",dissociation from ACC with 1 and 3 together,ACC complex,rapid dissociation
same,dissociation from ACC with 1 alone,ACC complex,little or no dissociation
"CC(C)[C@H](NC(=O)C[C@H](NC(=O)CCCCCCCCCCn1cc(CCCCOCCOCCOCCOc2ccc(Br)c(-c3cc4cnc(N)nc4nc3N)c2Br)nn1)c1ccccc1)C(=O)[C@@H]1C(=O)NC(=O)[C@H]1C [Compound 16, 11-(4-(4-(2-(2-(2-(2,4-dibromo-3-(2,7-diaminopyrido[2,3-d]pyrimidin-6-yl)phenoxy)ethoxy)ethoxy)ethoxy)butyl)-1H-1,2,3-triazol-1-yl)-N-((1S)-3-(((2S)-3-methyl-1-((3R,4S)-4-methyl-2,5-dioxopyrrolidin-3-yl)-1-oxobutan-2-yl)amino)-3-oxo-1-phenylpropyl)undecanamide]",dissociation from ACC with 1 and 3 together,ACC complex,rapid dissociation
same,dissociation from ACC with 1 alone,ACC complex,little or no dissociation
"CC(C)[C@H](NC(=O)C[C@H](NC(=O)CCCCCCCCCCn1cc(CCCCOCCOCCOCCOCCOCCOCCOc2ccc(Br)c(-c3cc4cnc(N)nc4nc3N)c2Br)nn1)c1ccccc1)C(=O)[C@@H]1C(=O)NC(=O)[C@H]1C [Compound 17, 11-(4-(22-(2,4-dibromo-3-(2,7-diaminopyrido[2,3-d]pyrimidin-6-yl)phenoxy)-5,8,11,14,17,20-hexaoxadocos-1-yl)-1H-1,2,3-triazol-1-yl)-N-((1S)-3-(((2S)-3-methyl-1-((3R,4S)-4-methyl-2,5-dioxopyrrolidin-3-yl)-1-oxobutan-2-yl)amino)-3-oxo-1-phenylpropyl)undecanamide]",Ki,E. coli ACC,0.2 nM
same,MIC ΔtolC + PMBN,E. coli ΔtolC; PMBN included,0.5 mg/L
same,MIC ΔtolC,E. coli ΔtolC; without PMBN,4 mg/L
same,dissociation from ACC with 1 and 3 together,ACC complex,rapid dissociation
same,dissociation from ACC with 1 or 3 alone,ACC complex; 100 μM (100-fold excess) of 1 or 3 alone added to ACC-inhibitor complex,unable to displace; also recorded: No dissociation
"CC(C)[C@H](NC(=O)C[C@H](NC(=O)CCCCCCCCCCn1cc(CCCCOCCOCCOCCOCCOCCOCCOc2cc(Br)c(-c3cc4cnc(N)nc4nc3N)c(Br)c2)nn1)c1ccccc1)C(=O)[C@@H]1C(=O)NC(=O)[C@H]1C [Compound 17-p, 11-(4-(22-(3,5-dibromo-4-(2,7-diaminopyrido[2,3-d]pyrimidin-6-yl)phenoxy)-5,8,11,14,17,20-hexaoxadocos-1-yl)-1H-1,2,3-triazol-1-yl)-N-((1S)-3-(((2S)-3-methyl-1-((3R,4S)-4-methyl-2,5-dioxopyrrolidin-3-yl)-1-oxobutan-2-yl)amino)-3-oxo-1-phenylpropyl)undecanamide]",Ki,E. coli ACC,3.53 nM
